“And” between values parts separate entries of the source, which are not always exact repeats. Equal entries are not always repeated.
Columns and labels:
[1] = test system: VJ-300 cells; assay: In vitro test of action suppressing proliferation of cancer cells, combined administration of doxorubicin (colony formation), resistant cells; type: cell-based, Human; settings: ADM alone or ADM + test compound 1 µg/ml, LD50 of ADM relative to ADM alone in KB cells = 1, 7 days incubation, colony count
Description: (§1) Human rhinopharynx cancer derived KB cells (i.e., sensitive cells) and their multi-drug resistant clone VJ-300 cells (i.e., resistant cells) were used as the test cells. As the incubation solutions, use was made of 10% fetal calf serum (Flow Laboratories) and Eagle MEM medium (Nissui Seiyaku) containing 0.292 mg/ml of L-glutamine (Flow Laboratories). The tests of the action for overcoming resistance to anti-cancer drugs or action for increasing the effect of the anti-cancer drug with the combined administration of the anti-cancer drug doxorubicin (i.e., adriamycin, ADM) and the test compound were performed as follows:
The test cells were suspended in incubation solutions and adjusted to a cell density of about 200 cells/ml. The cell suspensions were injected in 2 ml amounts into petri dishes and were incubated in a CO2 gas incubator (5% CO2, 95% air) at 37°C for 24 hours. Then, 5 µl of a predetermined concentration of the aqueous ADM solution and a predetermined concentration of a DMSO solution of the test compound were added, then the incubation was continued for a further 7 days. After the end of the incubation, the result was immobilized with methanol, Giemsa stained and measured for the number of colonies per dish. The results were used to prepare a volume-reaction curve. […] The results are shown in Table 8 to Table 10 using the concentration of LD50 of ADM in the ADM alone group by KB cells as the resistance degree 1 and calculating the resistances of the following LD50 concentrations as relative ratios. […]

[2] = test system: VCR resistant murine leukemia (P388/VCR) cells; assay: In vivo test: overcoming resistance to vincristine in VCR resistant murine leukemia cell bearing mice; set-up: species or system CDF1 male mice; settings: P388/VCR bearing CDF1 mice, VCR 100 µg/kg alone or with compound 100 mg/kg, intraperitoneally for 5 days; for Effect of overcoming resistance T/V (%): T/C of combination over T/C of VCR alone x 100; for Rate of prolongation of life T/C (%): with respect to controls
Description: 10^6 VCR resistant murine leukemia (P388/VCR) cells were transplanted intraperitoneally into groups of six CDF1 male mice, then the compound of the present invention (100 mg/kg) and VCR (100 µg/kg) were administered intraperitoneally for 5 days. […] Effect of overcoming resistance to anti-cancer drug (T/V) % = [(Rate of prolongation of life using VCR and present compound (T/C))/(Rate of prolongation of life using VCR alone (T/C))] x 100 [formula]

[3] = Acute toxicity test; settings: mouse, in vivo, ip; ddY male mice, intraperitoneally, suspended in 0.5% CMC-Na with 0.1% Tween 80, observed up until 7 days
Description: • Animals used: ddY male mice (SLC Japan), 4-5 weeks old, three to five mice per group. • Test method: The compound of the present invention was suspended in 0.5% sodium carboxymethylcellulose (CMC-Na) containing 0.1% Tween 80. It was administered to the mice intraperitoneally in amounts from 1000 mg/kg to 250 mg/kg in groups of three to five mice until no more deaths were observed. The survival of the animals was observed up until 7 days after administration.

[4] = test system: VJ-300 cells; assay: In vitro test of action suppressing proliferation of cancer cells, combined administration of vincristine, resistant cells; type: cell-based, Human; settings: VCR alone or VCR + test compound 1 µg/ml, LD50 of VCR relative to VCR alone in KB cells = 1
Description: as §1, with “As” for “Human rhinopharynx cancer derived KB cells (i.e., sensitive cells) and their multi-drug resistant clone VJ-300 cells (i.e., resistant cells) were used as the test cells. As”
The test cells were suspended in incubation solutions and adjusted to a cell density of about 200 cells/ml. The cell suspensions were injected in 2 ml amounts into petri dishes and were incubated in a CO2 gas incubator (5% CO2, 95% air) at 37°C for 24 hours. Then, 5 µl of a predetermined concentration of the aqueous ADM solution and a predetermined concentration of a DMSO solution of the test compound were added, then the incubation was continued for a further 7 days. After the end of the incubation, the result was immobilized with methanol, Giemsa stained and measured for the number of colonies per dish. The results were used to prepare a volume-reaction curve. […] The results are shown in Table 8 to Table 10 using the concentration of LD50 of ADM in the ADM alone group by KB cells as the resistance degree 1 and calculating the resistances of the following LD50 concentrations as relative ratios.
The same method as in Test Example 1 was used to test the action of vincristine (VCR) on anti-cancer drugs, prepare a volume-reaction curve, and calculate the resistances.

| Structure (SMILES) | Degree of resistance for ADM VJ-300 [1] | Average days of survival [2] | Effect of overcoming resistance T/V (%) [2] | Rate of prolongation of life T/C (%) [2] | LD50 at 168 h [3] | further results |
| --- | --- | --- | --- | --- | --- | --- |
| CCOC(=O)C1=C(c2ccc(-n3c(C)nc4ncccc43)cc2)NC(C)=C(C(=O)OCCCc2cccnc2)C1C(C)C (centres unmarked) [Compound 1, 4-isopropyl-6-methyl-2-[4-(2-methylimidazo[4,5-b]pyridin-1-yl)phenyl]-1,4-dihydropyridin-3,5-dicarboxylate 3-ethylester, 5-[3-(3-pyridyl)propyl]ester] | 2.4 | 12.8 | 113% | 108% | > 1000 mg/kg | – |
| CCCCCC1C(C(=O)OCCCc2cccnc2)=C(C)NC(c2cccnc2)=C1C(=O)OCC (centres unmarked) [Compound 16, 6-methyl-4-pentyl-2-(3-pyridyl)-1,4-dihydropyridin-3,5-dicarboxylate 3-ethylester, 5-[3-(3-pyridyl)propyl]ester] | 3.0 | 16.2 | 143% | 137% | > 1000 mg/kg | – |
| CCCCCC1C(C(=O)OC/C=C/c2cccnc2)=C(C)NC(c2ccc(-n3c(C)nc4cnccc43)cc2)=C1C(=O)OCC (centres unmarked) [Compound 23, 6-methyl-2-[4-(2-methylimidazo[4,5-c]pyridin-1-yl)phenyl]-4-pentyl-1,4-dihydropyridin-3,5-dicarboxylate 3-ethylester, 5-[(E)-3-(3-pyridyl)-2-propenyl]ester] | 1.2 | 13.5 | 138% | 142% | > 1000 mg/kg | – |
| CCOC(=O)C1=C(c2ccc(-n3c(C)nc4cnccc43)cc2)NC(C)=C(C(=O)OC/C=C/c2cccnc2)C1CCc1ccccc1 (centres unmarked) [Compound 24, 6-methyl-2-[4-(2-methylimidazo[4,5-c]pyridin-1-yl)phenyl]-4-(2-phenyl)ethyl-1,4-dihydropyridin-3,5-dicarboxylate 3-ethylester, 5-[(E)-3-(3-pyridyl)-2-propenyl]ester] | 1.1 | 13.3 | 136% | 140% | > 1000 mg/kg | – |
| CCOC(=O)C1=C(c2ccc(-n3ccnc3)cc2)NC(C)=C(C(=O)OC/C=C/c2cccnc2)C1/C=C/c1ccccc1 (centres unmarked) [Compound 33, 2-[4-(1-imidazolyl)phenyl]-6-methyl-4-[(E)-2-phenylethenyl]-1,4-dihydropyridin-3,5-dicarboxylate 3-ethylester, 5-[(E)-3-(3-pyridyl)-2-propenyl)ester] | 1.4 | – | – | – | > 1000 mg/kg | – |
| COC(=O)C1=C(c2ccc(-n3ccnc3)cc2)NC(C)=C(C(=O)OC/C=C/c2cccnc2)C1C#Cc1ccccc1 (centres unmarked) [Compound 40, 2-[4-(1-imidazolyl)phenyl]-6-methyl-4-phenylethynyl-1,4-dihydropyridin-3,5-dicarboxylate 3-methylester, 5-[(E)-3-(3-pyridyl)-2-propenyl]ester] | 2.5 | – | – | – | – | – |
| COC(=O)C1=C(c2ccc(-n3c(C)nc4cnccc43)cc2)NC(C)=C(C(=O)OC/C=C/c2cccnc2)C1/C=C/c1ccsc1 (centres unmarked) [Compound 41] | 7.8 | – | – | – | – | – |
| COC(=O)C1=C(c2ccc(-n3c(C)nc4cnccc43)cc2)NC(C)=C(C(=O)OC/C=C/c2cccnc2)C1/C=C/c1ccccc1 (centres unmarked) [Compound 42, 6-methyl-2-[4-(2-methylimidazo[4,5-c]pyridin-1-yl)phenyl]-4-[(E)-2-phenylethenyl]-1,4-dihydropyridin-3,5-dicarboxylate 3-methylester, 5-[(E)-3-(3-pyridyl)-2-propenyl]ester] | 2.1 | – | – | – | – | – |
| CCOC(=O)C1=C(c2ccc(-n3ccnc3)cc2)NC(C)=C(C(=O)OCCCc2cccnc2)C1/C=C/c1ccccc1 (centres unmarked) [Compound 43, 2-[4-(1-imidazolyl)phenyl]-6-methyl-4-[(E)-2-phenylethenyl]-1,4-dihydropyridin-3,5-dicarboxylate 3-ethylester, 5-[3-(3-pyridyl)propyl]ester] | 1.4 | 13.4 | 137% | 141% | – | – |
| CCCCCC1C(C(=O)OCCCc2cccnc2)=C(C)NC(c2ccc(-n3ccnc3)cc2)=C1C(=O)OCC (centres unmarked) [Compound 44, 2-[4-(1-imidazolyl)phenyl]-6-methyl-4-pentyl-1,4-dihydropyridin-3,5-dicarboxylate 3-ethylester, 5-[3-(3-pyridyl)propyl]-ester] | 1.4 | – | – | – | – | – |
| CCOC(=O)C1=C(c2ccc(-n3c(C)nc4cnccc43)cc2)NC(C)=C(C(=O)OCCCC(=O)c2cccnc2)C1CCCC1CCCCC1 (centres unmarked) [Compound 45, 4-(3-cyclohexylpropyl)-6-methyl-2-[4-(2-methylimidazo[4,5-c]pyridin-1-yl)phenyl]-1,4-dihydropyridin-3,5-dicarboxylate 3-ethylester, 5-(3-nicotinoylpropyl)ester] | 2.6 | – | – | – | – | – |
| CCOC(=O)C1=C(c2ccc(-n3c(C)nc4cnccc43)cc2)NC(C)=C(C(=O)OCCCC(=O)c2cccnc2)C1C=C1CCCCC1 (centres unmarked) [Compound 46, 4-cyclohexylidenemethyl-6-methyl-2-[4-(2-methylimidazo[4,5-c]pyridin-1-yl)phenyl]-1,4-dihydropyridin-3,5-dicarboxylate 3-ethylester 5-(3-nicotinoylpropyl)ester] | 2.5 | – | – | – | – | – |
| CCOC(=O)C1=C(c2ccc(-n3c(C)nc4cnccc43)cc2)NC(C)=C(C(=O)OCCCC(=O)c2cccnc2)C1/C=C/c1ccccc1 (centres unmarked) [Compound 47, 6-methyl-2-[4-(2-methylimidazo[4,5-c]pyridin-1-yl)phenyl]-4-[(E)-2-phenylethenyl]-1,4-dihydropyridin-3,5-dicarboxylate 3-ethylester, 5-(3-nicotinoylpropyl)ester] | 1.2 | – | – | – | – | – |
| CCOC(=O)C1=C(c2ccc(-n3cnc4ccccc43)cc2)NC(C)=C(C(=O)OCCCC(=O)c2cccnc2)C1C=C1CCCCC1 (centres unmarked) [Compound 48, 4-cyclohexylidenemethyl-6-methyl-2-[4-(1-benzimidazolyl)phenyl]-1,4-dihydropyridin-3,5-dicarboxylate 3-ethylester, 5-(3-nicotinoylpropyl)ester] | 1.7 | – | – | – | – | – |
| CC[C@]1(O)C[C@H]2CN(CCc3c([nH]c4ccccc34)[C@@](C(=O)OC)(c3cc4c(cc3OC)N(C=O)[C@H]3[C@@](O)(C(=O)OC)[C@H](OC(C)=O)[C@]5(CC)C=CCN6CC[C@]43[C@@H]65)C2)C1 [VCR, vincristine, reference compound] | – | – | 100% | – | – | Degree of resistance for VCR VJ-300 [4]: 483 - 952; Average days of survival ([2]; 100 mg/kg): 11.3 and 9.8 and 12.3; Rate of prolongation of life T/C (%) ([2]; 100 mg/kg): 96% and 103% and 109% |

Source: patent EP0943615A1, “1,4-DIHYDROPYRIDINE DERIVATIVES” (Nikken Chemicals Company, Limited, priority 1996, dated 1998)
